As usually defined, the CLint scaled is a measure of how fast metabolising enzymes remove a compound, apart from limits set by blood flow. The low end stands for greater metabolic stability, the high end for faster metabolism. In general, half-life refers to the time in which the quantity being followed falls by half. Low values mean fast loss, high ones slow loss. A word on the microsomal CLint: it is a measure of how fast metabolising enzymes remove a compound, apart from limits set by blood flow.

Where “and” joins values, the source holds several entries; their conditions need not be identical. Identical values can stand only once.

The values below come from paper PMC9233675, “Ru(II) photocages enable precise control over enzyme activity with red light” (Nature Communications, 2022).

A short description of data set [1]: Stability of compounds in mouse liver microsomes. The settings on record: for Remaining, % (NCF=60min): mouse liver microsomes, no co-factor (no NADPH); for CLint scaled / Remaining, % (T=60min) / half-life / microsomal CLint: mouse, liver microsomes. (Microsomes from liver hold many membrane-bound enzymes, among them those of drug oxidation.)
The next data set has as its target T1, recombinant CYP1B1 (Homo sapiens, UniProt Q16678).
T1 sequence (Q16678 51-543 limits assumed): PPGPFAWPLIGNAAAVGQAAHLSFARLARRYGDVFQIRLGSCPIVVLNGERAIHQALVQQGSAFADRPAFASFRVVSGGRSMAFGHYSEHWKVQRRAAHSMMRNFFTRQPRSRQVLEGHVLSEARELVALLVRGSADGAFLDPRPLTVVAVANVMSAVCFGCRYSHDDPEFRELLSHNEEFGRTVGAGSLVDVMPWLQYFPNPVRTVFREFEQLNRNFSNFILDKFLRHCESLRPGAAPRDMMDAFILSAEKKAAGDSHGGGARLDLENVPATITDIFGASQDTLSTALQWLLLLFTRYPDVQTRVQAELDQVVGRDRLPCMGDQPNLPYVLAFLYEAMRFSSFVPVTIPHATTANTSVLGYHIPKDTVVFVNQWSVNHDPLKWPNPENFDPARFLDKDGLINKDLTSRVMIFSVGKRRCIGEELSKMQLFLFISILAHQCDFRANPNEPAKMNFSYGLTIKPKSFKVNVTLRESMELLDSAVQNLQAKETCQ
The data set can be described thus: CYP1B1 stability: thermal melt by circular dichroism. On the procedure: Circular Dichroism (CD) was used to monitor changes in the secondary structure with increasing temperature. […] CYP1B1 was expressed and purified as reported. […] Spectra were taken scanning from 200 to 260 nm in duplicate. The temperature was increased followed by a 3 min equilibration period before spectra acquisition. The ellipticity values at 230 nm were plotted against temperature and fit to determine the Tm (Prism).

Data set [2] in a line: Stability of complexes at 37 °C in the dark (HPLC, UV/Vis). The data set is classed as physicochemical. The conditions noted are these: for Stability, % remaining at 24 h: 37 °C in H2O, dark. On the procedure: The stability of each complex was assessed over 24 h under aqueous conditions at 37 °C (Supplementary Figs. 12–15). […] Given the potency of the caged inhibitor, thermal stability is of critical importance, making complex 6 the preferred photocaged candidate.
Opti-MEM with 2% fetal bovine serum (right) at 37 °C in the dark over the course of 0 (blue line) to 24 h (black dashed line). Compounds were tested in triplicate (n = 3), the data for one replicate are presented. Complexes 4 and 5 slowly degraded in the experiment condition (see HPLC traces, Figures S13–14). The decrease in absorbance for complex 6 is explained by the slow aggregation of the compound in the 96-well plate.
(1 picture or pasted object on this page, not shown here)
Supplementary Figure 13. a HPLC chromatogram analysis of stability of 4 (50 µM in di-H2O) before (black dashed line, purity > 92 % ) and after incubation at 37 °C for 24 hours (red line). At 24 hours, 43 % of 4 was […]
Supplementary Figure 14. HPLC chromatogram analysis of stability of 5 (50 µM in di-H2O) before (black dashed line, purity > 97 %) and after incubation at 37 °C for 24 hours (red line). At 24 hours, 50 % of 5 was observed […]
Supplementary Figure 15. HPLC chromatogram analysis of stability of 6 (40 µM in di-H O : MeCN mixture (4:1), […]
MeCN was added to reduce the aggregation) before (black dashed line, purity > 99.5 %) and after incubation at 37 °C for 24 hours. At 24 hours, less than 2 % degradation was observed (calculated by area, detection wavelength = […]
Supplementary Figure 16. HPLC chromatogram analysis of stability of 6 (40 µM) in 5 % DMSO / di-H2O with a 100 μM GSH, b 100 μM imidazole and c acidic condition (pH = 1) after incubation at 37 °C for 72 hours. Less than […]
detection wavelength = 280 nm). […]
imidazole and c acidic condition (pH = 1) after incubation at 37 °C for 72 hours. d At 72 hours less than 7 % degradation was observed by HPLC at pH = 1 (calculated by area, detection wavelength = 280 nm). Compounds were tested in triplicate (n = 3), the data for one replicate are presented.

The nature of data set [3]: Kinetic solubility by UV/Vis. The conditions noted are these: Opti-MEM with 2% fetal bovine serum, room temperature, 3 hours; for Kinetic solubility C1: replicate 1; for Kinetic solubility C2: replicate 2; for Kinetic solubility C3: replicate 3. In kind it is physicochemical. On the procedure:
Kinetic solubility was measured by UV/Vis. In this experiment, 14 μL of 10 mM DMSO stocks of complexes 4–6 were diluted in 700 μL of Opti-MEM™ with 2% fet al bovine serum and kept at room temperature for 3 hours. The solutions were then filtered using syringe-driven filters (FV12S) and concentrations were measured by UV/vis absorbance in a 96-well plate in triplicate. […]
4. Simulate in the NPT ensemble using a Berendsen thermostat and a Berendsen barostat with: […]
5. Simulate in the NPT ensemble using a Berendsen thermostat and a Berendsen barostat with: […]
6. Simulate in the NPT ensemble using a Berendsen thermostat and a Berendsen barostat with: […]

Data set [4] in a line: Irradiation-induced 1O2 production (Singlet Oxygen Sensor Green assay). The settings on record: sheet S27; triplicate columns; DMSO control about 0.9. The data set is classed as physicochemical. The source says: Some Ru(II) complexes can generate singlet oxygen when photoexcited, a feature that has been applied to the selective photoinactivation of proteins. In this approach, the Ru(II) system is conjugated to a peptide that is a specific ligand for the protein target; binding of the peptide to the protein ensures close proximity of the Ru(II) center and thus, upon photoexcitation, the generation of a high local concentration of singlet oxygen. […] As very little of this reactive oxygen species was generated, inactivation of the CYP enzymes by this process appears unlikely.
Supplementary Figure 27. Determination of irradiation-induced 1O2 production with 660 nm light (1 hr = 58.7 J/cm2)
using the Singlet Oxygen Sensor Green assay. […]

As for `COc1ccc(/C=C/c2ccncn2)c(OC)c1` [Compound 2], in data set [1], the “Remaining, % (NCF=60min)” value is given as 111.5%; the CLint scaled stood at 3620 mL/min/kg; the “Remaining, % (T=60min)” value was determined as 0.1%; the half-life stood at 1.51 min. Besides, the intrinsic clearance (microsomal CLint) in data set [1] was found to be 915 µL/min/mg.

With `COc1ccc(C=Cc2ccncc2)c(OC)c1` [Compound 3], the “increase of thermal stability of CYP1B1” value on recombinant CYP1B1 (10 μM compound) amounted to 2 °C. Further, the Tm at recombinant CYP1B1 (recombinant CYP1B1 + 10 µM compound, no compound 47.9) was 50.4 +/− 0.26 °C. For the same compound, in data set [1], the “Remaining, % (NCF=60min)” value was determined as 137.9%; the CLint scaled amounted to 1900 mL/min/kg; the “Remaining, % (T=60min)” value is given as 0.1%; the half-life was found to be 2.89 min. For the same compound, in data set [1], the microsomal CLint was 480 µL/min/mg.

On to `COc1ccc(/C=C/c2cc[n+]([Ru-4]345([n+]6ccccc6-c6cccc([n+]63)-c3cccc[n+]34)[n+]3c(cc(C(=O)[O-])c4ccccc43)-c3cc(C(=O)[O-])c4ccccc4[n+]35)cn2)c(OC)c1` [Compound 5], for which, in data set [2] (HPLC), the “Stability, % remaining at 24 h” value was found to be 50%. In addition, in data set [3], the “Kinetic solubility C average” value was determined as 112.2 µM, the “Kinetic solubility C1” value worked out at 113.3 µM, the “Kinetic solubility C2” value worked out at 110.0 µM and the “Kinetic solubility C3” value turned out to be 113.0 µM. The “irradiation-induced 1O2 production (Singlet Oxygen Sensor Green signal, relative)” value in data set [4] is 1.081 and 0.9897 and 0.9798.

Consider `COc1ccc(/C=C/c2cc[n+]([Ru-4]345([n+]6ccccc6-c6cccc([n+]63)-c3cccc[n+]34)[n+]3c(cc(C(=O)[O-])c4ccccc43)-c3cc(C(=O)[O-])c4ccccc4[n+]35)cc2)c(OC)c1` [Compound 6], for which, in data set [2] (5 % DMSO / di-H2O, 100 μM GSH, 37 °C, 72 hours), the “degradation with GSH” value was “less than 2%”. Further, in data set [2] (5 % DMSO / di-H2O, 100 μM imidazole, 37 °C, 72 hours), the degradation with imidazole result is “less than 2%”. Also, the “Stability, % remaining at 24 h” value in data set [2] (HPLC) is given as 98.6%. Further, in data set [2] (37 °C, di-H2O : MeCN mixture (4:1), HPLC), the “degradation at 24 hours” value is “less than 2%”. Also, in data set [3], the “Kinetic solubility C average” value was 36.9 µM, the “Kinetic solubility C1” value is 33.9 µM, the “Kinetic solubility C2” value came out at 38.5 µM and the “Kinetic solubility C3” value amounted to 38.2 µM. In data set [4], the “irradiation-induced 1O2 production (Singlet Oxygen Sensor Green signal, relative)” value is 0.9896 and 0.937 and 1.032.
